Experimental findings from patent US11053250B2, “Pyrrolo[1,2-b]pyridazine derivatives” (Gilead Sciences, Inc., priority 2018, dated 2021) are described below.

The subject of one experiment is TNFα. Briefly: IRAK4 Monocyte TNFα Cell Based Assay. Conditions: cryopreserved human monocytes, LPS 50 pg/ml stimulation, TNFα by TR-FRET. The procedure: The cell suspension was then plated at a density of 5,000 cells/well onto black 384 well Greiner clear bottom plates. Plates were pre-spotted with test compounds and serially diluted in DMSO where 40 nL/well were delivered using the Echo 550 acoustic liquid dispenser (Labcyte®) for a final DMSO concentration of 0.1%. Plated cells were treated with compound for 1 hour at 37° C. Cells were then stimulated with 50 pg/ml of LPS (Sigma) excluding outside columns of plate used for unstimulated cell control wells. Cells were incubated for an additional 4 hours at 37° C. Cells were then spun out of the media and 5 μl of sample were taken and analyzed for total TNFα content using the TR-FRET Human TNFα detection system (CisBio). This system utilizes two labeled antibodies (cryptate and XL665) that bind to two different epitopes of the TNFα molecule and produce FRET signal proportional to the concentration of TNFα in the sample. Detection antibodies are mixed 50:50 and 5 μL were dispensed into each well. Plates were covered with clear seals and incubated at room temp overnight. The following morning plates were read using an Envision 2103 Multilabeled reader (PerkinElmer) with excitation/emission/FRET emission at 340 nm/615 nm/665 nm, respectively. Fluorescence intensities at 615 nm and 665 nm emission wavelengths were expressed as a ratio (665 nm/615 nm). Percent of control was calculated as follows: % Control=100×(RatioSample−Ratio0% stimulation)/(Ratio100% Stimulation−Ratio0% stimulation) where unstimulated cells (0% stimulation) were the negative control and stimulated cells (100% stimulation) were used as the positive control.

The next experiment addresses IRAK4 enzyme (Homo sapiens (Human), UniProt Q9NWZ3). Briefly: IRAK4 Biochemical Assay (TR-FRET/HTRF). The settings on record: 0.75 nM IRAK4, 500 μM ATP, STK1 peptide. The procedure:
IRAK4 enzyme (Carna Biosciences, Chuo-ku, Kobe, Japan) activity was measured by detecting phosphorylated peptide substrate formation using an antibody against the phosphorylated peptide substrate. This is a time-resolved fluorescence resonance energy transfer (TR-FRET) immunoassay, based on the STK1 KinEASE Assay (Cisbio, Bedford, Mass.). The assay was designed as a simple two-step, endpoint assay (a 5 μl enzyme reaction followed by 5 μl stop and detect Solution) performed in ProxiPlate-384 Plus plates (Perkin Elmer, Waltham, Mass.). Staurosporine, a non-selective kinase inhibitor was used as a positive control. Compounds diluted in DMSO were spotted into 384 well plates using a Labcyte® Echo 550 Liquid Handling System prior to addition of IRAK4 enzyme and peptide substrate. Reaction solutions were delivered using a Multi-Flo (Bio-Tek Instruments). The enzyme and peptide solution was incubated with compound for 15 minutes at room temp before the reaction was initiated by the addition of ATP. The standard 5 μl reaction mixture contained 500 μM ATP, 2 μM peptide (STK1 Peptide), 0.75 nM of IRAK4 in reaction buffer (50 mM HEPES, pH 7.0, 0.02% NaN3, 0.01% BSA, 0.1 mM Orthovanadate, 5 mM MgCl2, 0.025% NP-40, 1 mM DTT). After 120 min of incubation at room temperature, 5 μl of Stop and Detect Solution (1:100 Cryptate labeled anti-phosphorylated peptide antibody solution and 125 nM Tracer in a 50 mM HEPES pH 7.0 detection buffer containing sufficient EDTA) was added. The plate was then further incubated for 60 minutes at room temperature and read on Envision 2103 Multilabeled reader (PerkinElmer) with excitation/emission/FRET emission at 340 nm/615 nm/665 nm, respectively. Fluorescence intensities at 615 nm and 665 nm emission wavelengths were expressed as a ratio (665 nm/615 nm). Percentage of inhibition was calculated as below: % Inhibition=100×(RatioSample−Ratio0% Inhibition)/(Ratio100% Inhibition−Ratio0% Inhibition)
The 0% inhibition value comes from control wells lacking inhibitor. The 100% inhibition value comes from control wells containing a saturating amount of known inhibitor staurosporine.
For orientation: In TR-FRET formats the signal depends on donor and acceptor labels being close together.

Structures are written as SMILES. Bounds are passed on as bounds.

As usually defined, the EC50 is the midpoint of the concentration-response curve. Read a high EC50 as a less potent agent. What is called IC50 is the concentration that gives 50% inhibition. Low readings indicate greater potency, high ones weaker potency.

Sequence of IRAK4 enzyme (Q9NWZ3 whole entry): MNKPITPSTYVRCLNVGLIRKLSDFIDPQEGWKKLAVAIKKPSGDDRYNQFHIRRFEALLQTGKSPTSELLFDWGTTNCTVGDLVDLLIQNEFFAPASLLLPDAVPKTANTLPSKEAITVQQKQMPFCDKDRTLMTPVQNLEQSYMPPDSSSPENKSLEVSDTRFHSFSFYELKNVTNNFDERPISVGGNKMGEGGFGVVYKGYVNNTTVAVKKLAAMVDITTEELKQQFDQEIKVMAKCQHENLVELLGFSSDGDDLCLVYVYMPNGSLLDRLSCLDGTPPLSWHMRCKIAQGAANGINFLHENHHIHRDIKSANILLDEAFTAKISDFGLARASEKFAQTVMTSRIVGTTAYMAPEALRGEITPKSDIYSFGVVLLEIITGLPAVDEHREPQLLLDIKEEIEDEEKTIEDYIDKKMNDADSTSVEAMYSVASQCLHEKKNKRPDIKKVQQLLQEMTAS

Turning to `CC(C)(O)[C@H](F)Cn1cc(-c2cnc(-c3ccc4cc(C#N)cnn34)cc2NC23CCC(N4CCOC4=O)(CC2)CC3)nn1` [Compound 35, (R)-7-(5-(1-(2-fluoro-3-hydroxy-3-methylbutyl)-1H-1,2,3-triazol-4-yl)-4-((4-(2-oxooxazolidin-3-yl)bicyclo[2.2.2]octan-1-yl)amino)pyridin-2-yl)pyrrolo[1,2-b]pyridazine-3-carbonitrile], it took 3 nM to reach a half-maximal effect in the experiment on TNFα (Monocyte) (EC50). Further, the IC50 against IRAK4 enzyme is less than 1 nM.
`CNc1cc(-c2ccc3cc(C#N)cnn23)ncc1-c1cn([C@H]2CC[C@H](NC(=O)N3CCOCC3)CC2)nn1` [Compound 18, N-((1r,4r)-4-(4-(6-(3-cyanopyrrolo[1,2-b]pyridazin-7-yl)-4-(methylamino)pyridin-3-yl)-1H-1,2,3-triazol-1-yl)cyclohexyl)morpholine-4-carboxamide] gave an EC50 in the experiment with TNFα of 49 nM. The compound further came in with an IC50 against IRAK4 enzyme of 2 nM.
For the compound `CC(C)Nc1cc(-c2ccc3cc(C#N)cnn23)ncc1-c1cn(C2CCNCC2)nn1` [Compound 43, 7-(4-(isopropylamino)-5-(1-(piperidin-4-yl)-1H-1,2,3-triazol-4-yl)pyridin-2-yl)pyrrolo[1,2-b]pyridazine-3-carbonitrile], the EC50 with TNFα (Monocyte) was 50 nM. For the same compound, the IC50 at IRAK4 enzyme is less than 1 nM.
`COC(=O)NC[C@H]1C[C@H](Nc2cc(-c3ccc4cc(C#N)cnn34)ncc2-c2cn(CC(F)(F)F)nn2)C1` [Compound 29, methyl (((1r,3r)-3-((2-(3-cyanopyrrolo[1,2-b]pyridazin-7-yl)-5-(1-(2,2,2-trifluoroethyl)-1H-1,2,3-triazol-4-yl)pyridin-4-yl)amino)cyclobutyl)methyl)carbamate] returned an EC50 in the experiment with TNFα of 77 nM. This compound had an IC50 against IRAK4 enzyme of less than 1 nM.
In the experiment with TNFα (Monocyte), `CNc1cc(-c2ccc3cc(C#N)cnn23)ncc1-c1cn(CCC(C)(C)O)nn1` [Compound 26, 7-(5-(1-(3-hydroxy-3-methylbutyl)-1H-1,2,3-triazol-4-yl)-4-(methylamino)pyridin-2-yl)pyrrolo[1,2-b]pyridazine-3-carbonitrile] had an EC50 of 79 nM. Moreover, inhibition against IRAK4 enzyme was half-maximal at 2 nM (IC50).
With `CC(C)(O)[C@H](F)Cn1cc(-c2cnc(-c3ccc4cc(C#N)cnn34)cc2NC23CCC(N4CCOCC4)(CC2)CC3)nn1` [Compound 34, (R)-7-(5-(1-(2-fluoro-3-hydroxy-3-methylbutyl)-1H-1,2,3-triazol-4-yl)-4-((4-morpholinobicyclo[2.2.2]octan-1-yl)amino)pyridin-2-yl)pyrrolo[1,2-b]pyridazine-3-carbonitrile], in the experiment on TNFα (Monocyte), the response was half-maximal at 6 nM (EC50). The compound further had an IC50 against IRAK4 enzyme of less than 1 nM.
The corresponding values for `CNc1cc(-c2ccc3cc(C#N)cnn23)ncc1-c1cn(CC(F)F)nn1` [Compound 27, 7-(5-(1-(2,2-difluoroethyl)-1H-1,2,3-triazol-4-yl)-4-(methylamino)pyridin-2-yl)pyrrolo[1,2-b]pyridazine-3-carbonitrile] are 338 nM and 9 nM.
In the same order, the values of `CC(=O)N1CCC(n2cc(-c3cnc(-c4ccc5cc(C#N)cnn45)cc3NC(C)C)nn2)CC1` [Compound 42, 7-(5-(1-(1-acetylpiperidin-4-yl)-1H-1,2,3-triazol-4-yl)-4-(isopropylamino)pyridin-2-yl)pyrrolo[1,2-b]pyridazine-3-carbonitrile] are 33 nM and 1 nM.
In the same order, the values of `COC(=O)N1CCC(n2cc(-c3cnc(-c4ccc5cc(C#N)cnn45)cc3NC(C)C)nn2)CC1` [Compound 40, methyl 4-(4-(6-(3-cyanopyrrolo[1,2-b]pyridazin-7-yl)-4-(isopropylamino)pyridin-3-yl)-1H-1,2,3-triazol-1-yl)piperidine-1-carboxylate] are 84 nM and 1 nM.
As to `COC(=O)NCC1CC(Nc2cc(-c3ccc4cc(C#N)cnn34)ncc2-c2cn(CC3CC(O)C3)nn2)C1` [Compound 6, methyl (((1R,3r)-3-((2-(3-cyanopyrrolo[1,2-b]pyridazin-7-yl)-5-(1-(((1r,3R)-3-hydroxycyclobutyl)methyl)-1H-1,2,3-triazol-4-yl)pyridin-4-yl)amino)cyclobutyl)methyl)carbamate], in the experiment on TNFα, the EC50 is 19 nM. Further, the IC50 against IRAK4 enzyme was less than 1 nM.
`Cn1cc(-c2cnc(-c3ccc4cc(C#N)cnn34)cc2N[C@H]2CCC[C@@H](O)C2)nn1` [Compound 12, 7-(4-(((1S,3R)-3-hydroxycyclohexyl)amino)-5-(1-methyl-1H-1,2,3-triazol-4-yl)pyridin-2-yl)pyrrolo[1,2-b]pyridazine-3-carbonitrile]: the EC50 in the experiment with TNFα (Monocyte) turned out to be 30 nM. The same compound returned an IC50 against IRAK4 enzyme of 1 nM.
As to `CNc1cc(-c2ccc3cc(C#N)cnn23)ncc1-c1cn(C[C@@H](F)C(C)(C)O)nn1` [Compound 37, (R)-7-(5-(1-(2-fluoro-3-hydroxy-3-methylbutyl)-1H-1,2,3-triazol-4-yl)-4-(methylamino)pyridin-2-yl)pyrrolo[1,2-b]pyridazine-3-carbonitrile], the EC50 with TNFα (Monocyte) was 28 nM. Further, the IC50 at IRAK4 enzyme is less than 1 nM.
For the compound `CC(C)(O)[C@H](F)Cn1cc(-c2cnc(-c3ccc4cc(C#N)cnn34)cc2NC2COC2)nn1` [Compound 31, (R)-7-(5-(1-(2-fluoro-3-hydroxy-3-methylbutyl)-1H-1,2,3-triazol-4-yl)-4-(oxetan-3-ylamino)pyridin-2-yl)pyrrolo[1,2-b]pyridazine-3-carbonitrile], the EC50 in the experiment with TNFα (Monocyte) worked out at 23 nM. The IC50 at IRAK4 enzyme is less than 1 nM.
In turn, `CC(C)(O)CCn1cc(-c2cnc(-c3ccc4cc(C#N)cnn34)cc2NC2COC2)nn1` [Compound 11, 7-(5-(1-(3-hydroxy-3-methylbutyl)-1H-1,2,3-triazol-4-yl)-4-(oxetan-3-ylamino)pyridin-2-yl)pyrrolo[1,2-b]pyridazine-3-carbonitrile] yielded an EC50 in the experiment on TNFα (Monocyte) of 28 nM. This counts as double-digit nanomolar.
On the same count and under the same terms, the figure for `COC(=O)NC[C@H]1C[C@H](Nc2cc(-c3ccc4cc(C#N)cnn34)ncc2-c2cn([C@H]3CC[C@H](NC(=O)N4CCOCC4)CC3)nn2)C1` [Compound 17, methyl (((1R,3r)-3-((2-(3-cyanopyrrolo[1,2-b]pyridazin-7-yl)-5-(1-((1r,4R)-4-(morpholine-4-carboxamido)cyclohexyl)-1H-1,2,3-triazol-4-yl)pyridin-4-yl)amino)cyclobutyl)methyl)carbamate] is 5 nM.
`CC(C)Nc1cc(-c2ccc3cc(C#N)cnn23)ncc1-n1cc(C2CCOCC2)nn1` [Compound 60, 7-(4-(isopropylamino)-5-(4-(tetrahydro-2H-pyran-4-yl)-1H-1,2,3-triazol-1-yl)pyridin-2-yl)pyrrolo[1,2-b]pyridazine-3-carbonitrile] returned an EC50 in the experiment on TNFα (Monocyte) of 184 nM. The same compound gave an IC50 against IRAK4 enzyme of 2 nM.
With `CC(=O)N1CCC(c2cn(-c3cnc(-c4ccc5cc(C#N)cnn45)cc3NC(C)C)nn2)CC1` [Compound 63, 7-(5-(4-(1-acetylpiperidin-4-yl)-1H-1,2,3-triazol-1-yl)-4-(isopropylamino)pyridin-2-yl)pyrrolo[1,2-b]pyridazine-3-carbonitrile], it took 148 nM to reach a half-maximal effect in the experiment on TNFα (Monocyte) (EC50).
On the same count and under the same terms, in the case of `CC(C)Nc1cc(-c2ccc3cc(C#N)cnn23)ncc1-n1cc(CCC(C)(C)O)nn1` [Compound 62, 7-(5-(4-(3-hydroxy-3-methylbutyl)-1H-1,2,3-triazol-1-yl)-4-(isopropylamino)pyridin-2-yl)pyrrolo[1,2-b]pyridazine-3-carbonitrile] it was 31 nM.
With `CNc1cc(-c2ccc3cc(C#N)cnn23)ncc1-c1cn([C@H]2CC[C@H](NC(=O)OC(C)(C)C)CC2)nn1` [Compound 23, tert-butyl ((1r,4r)-4-(4-(6-(3-cyanopyrrolo[1,2-b]pyridazin-7-yl)-4-(methylamino)pyridin-3-yl)-1H-1,2,3-triazol-1-yl)cyclohexyl)carbamate], at IRAK4 enzyme, the IC50 came to 16 nM.
